Converted amounts (≈) assume the structure as drawn. “And” between values parts separate entries of the source, which are not always exact repeats. Identical values can stand only once. Like-named read-outs stand apart in the source and are kept apart here.
What was measured:
[1] = tested on: Finegoldia magna; experiment: In vitro antibacterial activity of Example 5 against anaerobes (MIC, agar dilution); assay type: cell-based; details: ATCC53516; Finegoldia magna (ATCC 53516)
[2] = tested on: 7 S. aureus strains and 1 strain of Streptococcus pyogenes; experiment: Minimum bactericidal concentration (MBC); assay type: cell-based, Staphylococcus aureus; Streptococcus pyogenes; details: 7 S. aureus strains and 1 S. pyogenes strain
[3] = tested on: Bacteroides fragilis; experiment: In vitro antibacterial activity of Example 5 against anaerobes (MIC, agar dilution); assay type: cell-based
[4] = tested on: Enterococcus faecium; experiment: In vitro antibacterial activity of Example 5 (MIC); assay type: cell-based
[5] = tested on: Staphylococcus saprophyticus; experiment: In vitro antibacterial activity of Example 5 (MIC); assay type: cell-based
[6] = tested on: Staphylococcus aureus; experiment: Emergence of resistance with serial passage; assay type: cell-based; details: after twenty passages with Example 5, S. aureus isolates (516 and 2398)
[7] = Plasma pharmacokinetics in S. aureus infected mice; assay type: in vivo, mouse; details: intraperitoneal, mice with ABT
Description: Groups of satellite mice infected with S. aureus were used for determining plasma concentrations. Dosing started 2 hours after infection and whole blood samples were taken at time points 0.5, 1, 2, 4, 6, 8, 12 and 24 h by submandibular bleed or by cardiac puncture following carbon dioxide asphyxiation and cervical dislocation. Whole blood was sampled into microcontainer tubes containing ethylenediamine tetraacetic acid (EDTA) (Beckton Dickenson). Three mice per time point were used. Plasma was separated by centrifugation for five minutes at 13200 rpm and stored at −20° C. until bioanalysis.
Biological samples containing Example 5 were extracted using protein precipitation. To one volume of sample, 5 volumes of acetonitrile containing the internal standard (Glyburide) were added. […] A Sciex API 4000, controlled by Analyst v1.4.2, was used for the acquisition of the data and the quantification of Example 5.
The plasma profile for each dose group was obtained by calculating the average plasma concentration of compound in each of the three animals per time point. The area under the plasma concentration time curve from zero to infinity (AUC); maximum plasma drug concentration (Cmax); time to reach maximum concentration (tmax); and plasma half-life (t1/2) for each dose group was determined by non-compartmental analysis (WinNonLin 5.2, Pharsight). […]

[8] = tested on: Clostridium difficile; experiment: In vitro antibacterial activity of Example 5 against anaerobes (MIC, agar dilution); assay type: cell-based; details: Clostridioides difficile
[9] = tested on: Enterobacter cloacae; experiment: In vitro antibacterial activity of Example 5 (MIC); assay type: cell-based
[10] = tested on: Staphylococcus haemolyticus; experiment: In vitro antibacterial activity of Example 5 (MIC); assay type: cell-based
[11] = tested on: Prevotella melaninogenica; experiment: In vitro antibacterial activity of Example 5 against anaerobes (MIC, agar dilution); assay type: cell-based
[12] = tested on: Staphylococcus epidermidis; experiment: In vitro antibacterial activity of Example 5 (MIC); assay type: cell-based
[13] = tested on: Bacillus subtilis; experiment: In vitro antibacterial activity of Example 5 (MIC); assay type: cell-based; details: 11 strains of Bacillus subtilis
[14] = tested on: Neisseria gonorrhoeae; experiment: MIC against 100 N. gonorrhoeae isolates, CLSI reference agar dilution; assay type: cell-based
[15] = tested on: Clostridium perfringens; experiment: microbe, parasite or virus in culture; assay type: cell-based
[16] = tested on: Staphylococcus aureus, Streptococcus pneumoniae, and S. pyogenes strains with characterized gyrase and topoisomerase mutations; assay type: cell-based; details: clinical isolates with mutations in gyrA, gyrB, ParC or ParE
[17] = tested on: Serratia marcescens; experiment: In vitro antibacterial activity of Example 5 (MIC); assay type: cell-based
[18] = tested on: Staphylococcus aureus; experiment: In vitro antibacterial activity of Example 5 (MIC); assay type: cell-based
[19] = tested on: Stenotrophomonas maltophilia; experiment: In vitro antibacterial activity of Example 5 (MIC); assay type: cell-based
[20] = tested on: Escherichia coli; experiment: In vitro antibacterial activity of Example 5 (MIC); assay type: cell-based
[21] = tested on: Citrobacter koseri; experiment: In vitro antibacterial activity of Example 5 (MIC); assay type: cell-based
[22] = tested on: Streptococcus agalactiae; experiment: In vitro antibacterial activity of Example 5 (MIC); assay type: cell-based
[23] = tested on: Proteus vulgaris; experiment: In vitro antibacterial activity of Example 5 (MIC); assay type: cell-based
[24] = tested on: Streptococcus pneumoniae; experiment: In vitro antibacterial activity of Example 5 (MIC); assay type: cell-based
[25] = azithromycin-intermediate isolates

What does the source list for `C[C@@H]1CN2c3c(cc4c(N5C(=O)OC[C@@H]5C)noc4c3F)CC3(C(=O)NC(=O)NC3=O)[C@H]2[C@H](C)O1` [Example 5, (2R,4S,4aS)-11-Fluoro-2,4-dimethyl-8-[(4S)-4-methyl-2-oxo-1,3-oxazolidin-3-yl]-1,2,4,4a-tetrahydro-2′H,6H-spiro[1,4-oxazino[4,3-a][1,2]oxazolo[4,5-g]quinoline-5,5′-pyrimidine]-2′,4′,6′(1′H,3′H)-trione]?
MIC [1]: < 0.03 µg/mL; minimum bactericidal concentrations (MBCs) relative to the MIC [2]: ≤ 2 fold; MIC ([3]; Bacteroides fragilis (isolates not further specified)): 8 µg/mL (≈ 16.4 µM); MIC ([3]; Bacteroides fragilis, ATCC25285, Bacteroides fragilis (ATCC 25285, CLSI QC Strain), read-out: MIC): 2 µg/mL (≈ 4.1 µM); MIC ([3]; Bacteroides fragilis, Bacteroides fragilis (isolates not further specified), read-out: MIC): 4 µg/mL (≈ 8.21 µM); MIC [4]: 16 µg/mL (≈ 32.8 µM); MIC90 ([4]; E. faecium): 16 µg/mL (≈ 32.8 µM); MIC ([4]; Enterococcus faecium (Vancomycin-R, fluoroquinolone-R)): 8 µg/mL (≈ 16.4 µM); MIC [5]: 0.5 µg/mL (≈ 1.03 µM); MIC90 ([5]; S. saprophyticus, n=16): 0.5 µg/mL (≈ 1.03 µM); decrease in susceptibility over the starting culture [6]: 32 fold and 16 fold; pharmacokinetics over the dosing range [7]: nonlinear pharmacokinetics; time of maximum concentration post-administration [7]: 0.5 h; MIC ([8]; ATCC70057, Clostridium difficile (ATCC 70057, CLSI QC Strain)): 0.125 µg/mL (≈ 0.256 µM); MIC ([8]; Clostridium difficile): 0.125 µg/mL (≈ 0.256 µM); MIC ([9]; Enterobacter cloacae (Chromosomal AmpC)): 32 µg/mL (≈ 65.6 µM); MIC ([9]; Enterobacter cloacae, read-out: MIC): 32 µg/mL (≈ 65.6 µM); MIC [10]: 0.25 µg/mL (≈ 0.513 µM); MIC90 ([10]; S. haemolyticus, n=21): 0.25 µg/mL (≈ 0.513 µM); MIC [11]: 0.25 µg/mL (≈ 0.513 µM); MIC ([12]; Staphylococcus epidermidis (MRSE)): 0.25 µg/mL (≈ 0.513 µM); MIC90 ([12]; Staphylococcus epidermidis, S. epidermidis, n=37): 0.25 µg/mL (≈ 0.513 µM); MIC90 [13]: 0.5 µg/mL (≈ 1.03 µM); MIC ([14]; Neisseria gonorrhoeae, ATCC49226, QC strain N. gonorrhoeae ATCC 49226, read-out: MIC): 0.06 µg/mL (≈ 0.123 µM); MIC ([14]; Neisseria gonorrhoeae, all 100 N. gonorrhoeae isolates tested, read-out: MIC values): ≤ 0.25 µg/mL; MIC90 ([14]; Neisseria gonorrhoeae, azithromycin-intermediate isolates, read-out: MIC90): 0.12 µg/mL (≈ 0.246 µM); MIC ([14]; Neisseria gonorrhoeae, azithromycin-susceptible and -intermediate isolates, read-out: modal MIC): 0.06 µg/mL (≈ 0.123 µM); MIC90 ([14]; Neisseria gonorrhoeae, azithromycin-susceptible isolates, read-out: MIC90): 0.06 µg/mL (≈ 0.123 µM); MIC90 ([14]; Neisseria gonorrhoeae, ciprofloxacin-intermediate and -resistant strains, read-out: MIC90): 0.12 µg/mL (≈ 0.246 µM); MIC ([14]; Neisseria gonorrhoeae, ciprofloxacin-intermediate and -resistant strains, read-out: modal MIC): 0.06 µg/mL (≈ 0.123 µM); MIC90 ([14]; Neisseria gonorrhoeae, non-susceptible phenotypes, read-out: MIC90): 0.06 to 0.12 µg/mL (≈ 0.123 to 0.246 µM); MIC ([14]; Neisseria gonorrhoeae, penicillin-intermediate and -resistant strains, read-out: modal MIC): 0.06 µg/mL (≈ 0.123 µM); MIC90 ([14]; Neisseria gonorrhoeae, penicillin-intermediate strains, read-out: MIC90): 0.06 µg/mL (≈ 0.123 µM); MIC90 ([14]; Neisseria gonorrhoeae, penicillin-resistant strains, read-out: MIC90): 0.12 µg/mL (≈ 0.246 µM); MIC90 ([14]; Neisseria gonorrhoeae, susceptible phenotypes (ciprofloxacin-, tetracycline- and azithromycin-susceptible), read-out: MIC90): 0.06 µg/mL (≈ 0.123 µM); MIC ([14]; Neisseria gonorrhoeae, tetracycline-intermediate and -resistant strains, read-out: modal MIC): 0.06 µg/mL (≈ 0.123 µM); MIC90 ([14]; Neisseria gonorrhoeae, tetracycline-intermediate strains, read-out: MIC90): 0.06 µg/mL (≈ 0.123 µM); MIC90 ([14]; Neisseria gonorrhoeae, tetracycline-resistant strains, read-out: MIC90): 0.12 µg/mL (≈ 0.246 µM); MIC ([14]; Neisseria gonorrhoeae, various subsets of isolates including those non-susceptible to comparator agents, read-out: modal MIC): 0.06 µg/mL (≈ 0.123 µM); MIC50 ([14]; Neisseria gonorrhoeae, all 100 N. gonorrhoeae isolates, read-out: MIC50): 0.06 µg/mL (≈ 0.123 µM); MIC90 ([14]; Neisseria gonorrhoeae, all 100 N. gonorrhoeae isolates, read-out: MIC90): 0.125 µg/mL (≈ 0.256 µM); MIC ([14]; QC strain N. gonorrhoeae ATCC 49226): 0.12 µg/mL (≈ 0.246 µM); MIC90 ([14]; all 100 N. gonorrhoeae isolates): 0.12 µg/mL (≈ 0.246 µM); MIC50 [14, 25]: 0.06 µg/mL (≈ 0.123 µM); isolates at 0.06 μg/mL [14, 25]: 66.7%; MIC50 ([14]; azithromycin-susceptible isolates): 0.06 µg/mL (≈ 0.123 µM); MIC50 ([14]; ciprofloxacin-intermediate and -resistant strains): 0.06 µg/mL (≈ 0.123 µM); MIC50 ([14]; penicillin-intermediate strains): 0.06 µg/mL (≈ 0.123 µM); MIC50 ([14]; penicillin-resistant strains): 0.06 µg/mL (≈ 0.123 µM); isolates at ≦0.06 μg/mL ([14]; penicillin-resistant strains): 85.7%; MIC50 ([14]; tetracycline-intermediate strains): 0.06 µg/mL (≈ 0.123 µM); MIC50 ([14]; tetracycline-resistant strains): 0.06 µg/mL (≈ 0.123 µM); isolates at 0.06 μg/mL ([14]; tetracycline-resistant strains): 66.7%; MIC [15]: 0.5 µg/mL (≈ 1.03 µM); cross resistance [16]: No cross resistance; MIC [17]: > 64 µg/mL; MIC90 ([18]; 100 strains of S. aureus): 0.25 µg/mL (≈ 0.513 µM); MIC ([18]; ATCC29213, Staphylococcus aureus (ATCC 29213, CLSI QC Strain)): 0.125 µg/mL (≈ 0.256 µM); MIC ([18]; ATCC29213, Staphylococcus aureus + 2%Human albumin (ATCC 29213, CLSI QC Strain)): 0.25 µg/mL; MIC ([18]; MRSA / USA100, Staphylococcus aureus (MRSA, USA100)): 0.125 µg/mL (≈ 0.256 µM); MIC ([18]; MRSA, Staphylococcus aureus (MRSA)): 0.5 µg/mL (≈ 1.03 µM); MIC ([18]; MRSA, Staphylococcus aureus (MRSA, fluoroquinolone-R)): 0.25 µg/mL (≈ 0.513 µM); MIC ([18]; MSSA, Staphylococcus aureus (MSSA, in vivo strain)): 0.125 µg/mL (≈ 0.256 µM); MIC ([18]; Staphylococcus aureus (In vivo Strain)): 0.25 µg/mL (≈ 0.513 µM); MIC ([18]; VISA, Staphylococcus aureus (Mu3, VISA)): 0.25 µg/mL (≈ 0.513 µM); MIC [19]: > 64 µg/mL; MIC ([20]; ATCC25922, Escherichia coli (ATCC 25922 CLSI QC Strain)): 2 µg/mL (≈ 4.1 µM); MIC ([20]; ATCC25922, Escherichia coli (TolC- of ATCC 25922)): < 0.06 µg/mL; MIC ([20]; ATCC25922, Escherichia coli + 2%Human albumin (ATCC 25922)): < 0.06 µg/mL; MIC ([20]; ATCC35218, Escherichia coli (ATCC 35218 CLSI QC Strain)): 4 µg/mL (≈ 8.21 µM); MIC ([20]; Escherichia coli (K12(W3110))): 2 µg/mL (≈ 4.1 µM); MIC [21]: 64 µg/mL (≈ 131 µM); MIC [22]: 0.5 µg/mL (≈ 1.03 µM); MIC90 ([22]; 100 strains of S. Agalactiae): 0.25 µg/mL (≈ 0.513 µM); MIC50 ([22]; 100 strains of S. Agalactiae, read-out: MIC50 (MICH [sic])): 0.125 µg/mL (≈ 0.256 µM); MIC [23]: 32 µg/mL (≈ 65.6 µM); MIC ([24]; Streptococcus pneumonia (Penicillin, -erythromycin- and fluoroquinolone-resistant)): 0.25 µg/mL (≈ 0.513 µM); MIC ([24]; Streptococcus pneumoniae, ATCC49619, Streptococcus pneumonia (ATCC 49619, CLSI QC Strain), read-out: MIC): 0.25 µg/mL (≈ 0.513 µM); MIC90 ([24]; Streptococcus pneumoniae, 100 strains of S. pneumoniae): 0.25 µg/mL (≈ 0.513 µM); MIC50 ([24]; Streptococcus pneumoniae, 100 strains of S. pneumoniae, read-out: MIC50 (MICH [sic])): 0.125 µg/mL (≈ 0.256 µM); MIC ([24]; Streptococcus pneumoniae, Streptococcus pneumonia (In vivo Strain), read-out: MIC): 0.25 µg/mL (≈ 0.513 µM)

Reference: patent US8889671B2, “Compounds and methods for treating bacterial infections” (AstraZeneca AB, priority 2013, dated 2014)
